System: Antigen-Specific CTL
Assay: Immune response of antigen-specific CTL for peptide and tumor cell, vaccine a (Test 11)
Assay type: in vivo, mouse
Description: The immune response of CTL induced with a vaccine comprising the present compound in the presence of tumor cells was evaluated in the following procedure. The vaccine was administered to a HLA-A*02:01 transgenic mouse to prepare splenocyte comprising an antigen peptide-specific CTL, and the immune response was evaluated by incubating the spelenocyte in the presence of tumor cells and antigen peptides.
Specifically, vaccine a prepared like Test 6 was injected to a HLA-A*02:01 transgenic mouse intradermally at the tail base area in an amount for administering 300 μg of Compound of formula 4 per body and 225 μg of Peptide SEQ ID No. 3 per body. Or, in the step of preparing vaccine a, the compound prepared in Example 3 was added to the diluted peptide solution to prepare a vaccine, and the prepared vaccine was injected to a HLA-A*02:01 transgenic mouse intradermally at the tail base area in an amount for administering 300 μg of Compound of formula 4 per body, 225 μg of Peptide SEQ ID No. 3 per body, and 32.5 ng of the compound prepared in Example 3 per body. The administrations were done twice, which had one week interval. One week after the final administration, the mice were sacrificed with CO2 gas, and then spleens removed from the mice. A splenocyte suspension was prepared from the spleens with Complete T-cell Medium (hereinafter, CTM). The splenocytes derived from each three mice per group were mixed. The mixed splenocytes were stained with an FITC-labeled anti-CD8 antibody (BD Pharmingen) and a PE-labeled HLA tetramer (MBL) against Peptide SEQ ID NO. 1, and analyzed for peptide-specific CTLs with a flow cytometer.
The peptide (SEQ ID No. 1) solution was added to a part of the splenocyte at a final concentration of 100 μg/mL, and the cells were stood for about one hour at 37° C., 5% CO2. After excess peptides were washed out with CTM, the peptide-pulsed splenocyte and unpulsed splenocyte were mixed at a ratio of 1:10, and the mixture was seeded on a U-bottom 96 well plate at 3.85×10^5 cells/well. A cell line (hereinafter, also referred to as LLC-HHD-WT1 tumor cells) was established by stably expressing HHD [a chimeric HLA of a human MHC (HLA-A*02:01) and a mouse MHC (H-2D^b)] and antigen peptide (SEQ ID No. 1) in a mouse Lewis lung carcinoma cell line LLC as tumor cells. X-ray (50 Gy) was irradiated to the LLC-HHD-WT1 tumor cells, and then the LLC-HHD-WT1 tumor cells were cultured in the presence of a mouse recombinant IFN-γ (100 ng/mL) for about two days and washed with CTM. […] The concentration of mouse IFN-γ in the culture supernatant was measured with an ELISA kit (R&D Systems). […] 1, and analyzed for peptide-specific CTLs with a flow cytometer.

Which “amount of IFN-γ produced from the CTL in the mixed culture, relative to vaccine a without compound” value (about three days culture with LLC-HHD-WT1 tumor cells and Peptide SEQ ID No. 1, ELISA, average of 3 wells) does the source give for CCCCOc1nc(N)c2[nH]c(=O)n(Cc3ccc(CN(C)CCOCCOCCOCCOCCO)cc3)c2n1 [Example 3, 6-amino-2-butoxy-9-{[4-(16-hydroxy-2-methyl-5,8,11,14-tetraoxa-2-azahexadecan-1-yl)phenyl]methyl}-7,9-dihydro-8H-purin-8-one] here?
Its value is 4.9 times.

What about the “difference in CTL specific to Peptide SEQ ID No. 1 versus vaccine a without compound” value (after about three days culture with LLC-HHD-WT1 tumor cells and Peptide SEQ ID No. 1) of the same compound?
The value was 3.6 times.

And the “CTLs specific to Peptide (SEQ ID No. 1) in splenocyte, relative to vaccine a without compound” value (before culture, flow cytometry (tetramer), 32.5 ng per body in vaccine a, twice)?
The value was 1.7 times.

What about the “change of CTL specific to Peptide SEQ ID No. 1 on culture with tumor cells” value (splenocytes mixed with tumor cells and cultured in the presence of Peptide SEQ ID No. 1) of the same compound?
The value was “increased”.

Source: US20220241409A1, “WATER SOLUBLE ADJUVANT AND COMPOSITION CONTAINING SAME” (Sumitomo Dainippon Pharma Co., Ltd., priority 2019, published 2022)
